# Data from patent US20240072809A1, “ASGPR-BINDING COMPOUNDS FOR THE DEGRADATION OF EXTRACELLULAR PROTEINS” (Avilar Therapeutics, Inc., priority 2020, published 2024).
# Biological target: ASGPR (Homo sapiens (Human), UniProt P07306)
# Experiment: Affinity to ASGPR measured by surface plasmon resonance (SPR)
# Type: binding
# Conditions: ASGPR ligands with linker, Table 5; read-out: ASGPR_SPR Binding KD
# Sequence of ASGPR (P07306 whole entry): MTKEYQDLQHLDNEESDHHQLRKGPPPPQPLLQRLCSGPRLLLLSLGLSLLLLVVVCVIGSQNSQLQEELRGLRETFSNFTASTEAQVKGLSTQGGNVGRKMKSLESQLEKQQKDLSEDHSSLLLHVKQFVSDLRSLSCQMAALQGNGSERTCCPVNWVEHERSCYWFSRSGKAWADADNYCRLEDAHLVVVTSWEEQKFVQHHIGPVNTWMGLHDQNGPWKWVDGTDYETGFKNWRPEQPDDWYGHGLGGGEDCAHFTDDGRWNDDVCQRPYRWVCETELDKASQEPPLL
row,Compound,Kd [µM]
1,"CC(=O)N[C@@H]1CO[C@H](COCCOCCOCCOCCNC(=O)CCOCC(COCCC(=O)NCCOCCOCCOCCOC[C@H]2OC[C@@H](NC(C)=O)[C@@H](O)[C@H]2O)(COCCC(=O)NCCOCCOCCOCCOC[C@H]2OC[C@@H](NC(C)=O)[C@@H](O)[C@H]2O)NC(=O)COCCOCCOCCNc2ccc([N+](=O)[O-])cc2[N+](=O)[O-])[C@H](O)[C@@H]1O [Compound 33, 3,3′-((2-(2-(2-(2-(2-((2,4-dinitrophenyl)amino)ethoxy)ethoxy)ethoxy)acetamido)propane-1,3-diyl)tris(oxy))tris(N-(1-((2R,3R,4R,5R)-5-acetamido-3,4-dihydroxytetrahydro-2H-pyran-2-yl)-2,5,8,11-tetraoxatridecan-13-yl)propanamide)]",< 100

# Same assay, conditions: ASGPR ligands, Table 2; Biacore 8K, 25° C., steady state fit; read-out: SPR Binding External Calculation: KD
row,Kd [µM],Compound
1,< 100,"CO[C@@H]1O[C@H](CO)[C@H](O)[C@H](O)[C@H]1n1ccc(=O)cc1 [Compound A119, 1-((2R,3R,4R,5R,6R)-4,5-dihydroxy-6-(hydroxymethyl)-2-methoxytetrahydro-2H-pyran-3-yl)pyridin-4(1H)-one]"
2,< 100,"OC[C@H]1OC[C@@H](Cn2cnnn2)[C@@H](O)[C@H]1O [Compound A196, (2R,3R,4R,5R)-5-((1H-tetrazol-1-yl)methyl)-2-(hydroxymethyl)tetrahydro-2H-pyran-3,4-diol]"
3,< 100,CO[C@@H]1O[C@H](CO)[C@H](O)[C@H](O)[C@H]1Nc1ncc(Cl)cc1F [Compound A109]
4,100 to 500,"OC[C@@H]1CO[C@H](CO)[C@H](O)[C@@H]1O [Compound A181, (2R,3R,4R,5R)-2,5-bis(hydroxymethyl)tetrahydro-2H-pyran-3,4-diol]"
5,< 100,"N#Cc1sc(N[C@H]2CO[C@H](CO)[C@H](O)[C@@H]2O)nc1Cl [Compound A95, 4-chloro-2-(((3S,4R,5R,6R)-4,5-dihydroxy-6-(hydroxymethyl)tetrahydro-2H-pyran-3-yl)amino)thiazole-5-carbonitrile]"

# The next lines start with the compound.
row,Compound,Kd [µM]
1,"CO[C@@H]1O[C@H](CO)[C@H](O)[C@H](O)[C@H]1Nc1nc(N2CCOCC2)ns1 [Compound A117, (2R,3R,4R,5R,6R)-2-(hydroxymethyl)-6-methoxy-5-((3-morpholino-1,2,4-thiadiazol-5-yl)amino)tetrahydro-2H-pyran-3,4-diol]",100 to 500
2,"OC[C@H]1OC[C@@H](CCc2ccccc2)[C@@H](O)[C@H]1O [Compound A160, (2R,3R,4R,5R)-2-(hydroxymethyl)-5-phenethyltetrahydro-2H-pyran-3,4-diol]",> 1000
3,"[N-]=[N+]=NCC1CO[C@H](CO)[C@H](O)[C@@H]1O (stereo partly drawn) [Compound A184, (2R,3R,4R)-5-(azidomethyl)-2-(hydroxymethyl)tetrahydro-2H-pyran-3,4-diol]",< 100

# Same assay, conditions: ASGPR ligands, Table 4; class symbols; read-out: ASGPR_PR Binding KD
row,Kd [µM],Compound
1,100 to 500,"OC[C@H]1O[C@H]2[C@@H]([C@@H](O)[C@H]1O)C2(Cl)Cl [Compound A397, (1S,3R,4R,5R,6R)-7,7-dichloro-3-(hydroxymethyl)-2-oxabicyclo[4.1.0]heptane-4,5-diol]"
2,< 100,"OC[C@H]1OC[C@H](Nc2nc(Br)ns2)[C@@H](O)[C@H]1O [Compound A299, (2R,3R,4R,5S)-5-[(3-bromo-1,2,4-thiadiazol-5-yl)amino]-2-(hydroxymethyl)oxane-3,4-diol]"
3,< 100,OC[C@H]1OC[C@H](Nc2cc(Cl)ncn2)[C@@H](O)[C@H]1O [Compound A321]
4,100 to 500,"CN(C)[C@@H]1CO[C@H](CO)[C@H](O)[C@@H]1O [Compound A393, (2R,3R,4R,5R)-5-(dimethylamino)-2-(hydroxymethyl)tetrahydro-2H-pyran-3,4-diol]"
5,< 100,N#Cc1cncc(N[C@H]2CO[C@H](CO)[C@H](O)[C@@H]2O)n1 [Compound A312]
6,< 100,"Nc1nsc(N[C@H]2CO[C@H](CO)[C@H](O)[C@@H]2O)n1 [Compound A341, (2R,3R,4R,5S)-5-((3-amino-1,2,4-thiadiazol-5-yl)amino)-2-(hydroxymethyl)tetrahydro-2H-pyran-3,4-diol]"
7,< 100,"NC(=O)[C@@H]1CO[C@H](CO)[C@H](O)[C@@H]1O [Compound A174, (3R,4R,5R,6R)-4,5-dihydroxy-6-(hydroxymethyl)tetrahydro-2H-pyran-3-carboxamide]"
8,< 100,O=S(=O)(N[C@H]1CO[C@H](CO)[C@H](O)[C@@H]1O)C(F)(F)F [Compound A344]
9,< 100,OC[C@H]1OC[C@H](Nc2cc(Cl)cc(Cl)n2)[C@@H](O)[C@H]1O [Compound A296]
10,> 1000,"NC[C@@H]1CO[C@H](CO)[C@H](O)[C@@H]1O [Compound A425, (2R,3R,4R,5R)-5-(aminomethyl)-2-(hydroxymethyl)tetrahydro-2H-pyran-3,4-diol]"
11,< 100,CO[C@H]1O[C@H](CO)[C@H](O)[C@H](O)[C@H]1Nc1ncns1 [Compound A378]
12,100 to 500,"CN1CCN([C@@H]2CO[C@H](CO)[C@H](O)[C@@H]2O)C1=O [Compound A392, 1-((3R,4R,5R,6R)-4,5-dihydroxy-6-(hydroxymethyl)tetrahydro-2H-pyran-3-yl)-3-methylimidazolidin-2-one]"
13,< 100,CO[C@H]1O[C@H](CO)[C@H](O)[C@H](O)[C@H]1Nc1nc(Cl)c(C#N)s1 [Compound A379]

# Continued, compound first:
row,Compound,Kd [µM]
1,OC[C@H]1OC[C@H](Nc2nc(C(F)(F)F)cs2)[C@@H](O)[C@H]1O [Compound A306],< 100
2,COc1nc(Cl)nc(N[C@H]2CO[C@H](CO)[C@H](O)[C@@H]2O)n1 [Compound A330],< 100
3,CO[C@H]1O[C@H](CO)[C@H](O)C[C@H]1Nc1nc(N2CCOCC2)ns1 [Compound A382],< 100
4,N#Cc1cccc(N[C@H]2CO[C@H](CO)[C@H](O)[C@@H]2O)n1 [Compound A332],< 100
5,OC[C@H]1OC[C@H](Nc2ccnc(C(F)(F)F)n2)[C@@H](O)[C@H]1O [Compound A301],< 100
6,COc1ccnc(N[C@H]2CO[C@H](CO)[C@H](O)[C@@H]2O)n1 [Compound A323],< 100
7,"CS(=O)(=O)c1ccnc(N[C@H]2CO[C@H](CO)[C@H](O)[C@@H]2O)n1 [Compound A371, (2R,3R,4R,5S)-2-(hydroxymethyl)-5-((4-(methylsulfonyl)pyrimidin-2-yl)amino)tetrahydro-2H-pyran-3,4-diol]",< 100
8,"O=C(N[C@H]1CO[C@H](CO)[C@H](O)[C@@H]1O)c1ccccc1 [Compound A342, N-((3S,4R,5R,6R)-4,5-dihydroxy-6-(hydroxymethyl)tetrahydro-2H-pyran-3-yl)benzamide]",< 100
9,"CCOc1cc(Cl)nc(N[C@H]2CO[C@H](CO)[C@H](O)[C@@H]2O)n1 [Compound A367, (2R,3R,4R,5S)-5-((4-chloro-6-ethoxypyrimidin-2-yl)amino)-2-(hydroxymethyl)tetrahydro-2H-pyran-3,4-diol]",< 100
10,"OC[C@@]12CO[C@@H](O1)[C@H](Nc1nc(Cl)ns1)[C@@H](O)[C@H]2O [Compound A287, (1S,2R,3R,4R,5S)-4-((3-chloro-1,2,4-thiadiazol-5-yl)amino)-1-(hydroxymethyl)-6,8-dioxabicyclo[3.2.1]octane-2,3-diol]",< 100

# Same assay, conditions: ASGPR ligands, Table 4; numeric lower bounds; read-out: ASGPR_PR Binding KD
row,Kd [µM],Compound
1,> 200,"NC(=O)C[C@@H]1CO[C@H](CO)[C@H](O)[C@@H]1O [Compound A399, 2-((3R,4R,5R,6R)-4,5-dihydroxy-6-(hydroxymethyl)tetrahydro-2H-pyran-3-yl)acetamide]"
2,> 200,"CN(C)C(=O)[C@@H]1CO[C@H](CO)[C@H](O)[C@@H]1O [Compound A170, (3R,4R,5R,6R)-4,5-dihydroxy-6-(hydroxymethyl)-N,N-dimethyltetrahydro-2H-pyran-3-carboxamide]"
3,> 200,"CC(=O)NCCC[C@@H]1CO[C@H](CO)[C@H](O)[C@@H]1O [Compound A163, N-(3-((3R,4R,5R,6R)-4,5-dihydroxy-6-(hydroxymethyl)tetrahydro-2H-pyran-3-yl)propyl)acetamide]"
4,> 20,"CS(=O)(=O)NC(=O)N[C@H]1CO[C@H](CO)[C@H](O)[C@@H]1O [Compound A157, N-(((3S,4R,5R,6R)-4,5-dihydroxy-6-(hydroxymethyl)tetrahydro-2H-pyran-3-yl)carbamoyl)methanesulfonamide]"
5,> 200,"CC(=O)NCCNC[C@@H]1CO[C@H](CO)[C@H](O)[C@@H]1O [Compound A402, N-(2-((((3R,4R,5R,6R)-4,5-dihydroxy-6-(hydroxymethyl)tetrahydro-2H-pyran-3-yl)methyl)amino)ethyl)acetamide]"

# The remaining lines, values behind:
row,Compound,Kd [µM]
1,"OC[C@H]1OC[C@H](Nc2cc(C(F)(F)F)ccn2)[C@@H](O)[C@H]1O [Compound A356, (2R,3R,4R,5S)-2-(hydroxymethyl)-5-((4-(trifluoromethyl)pyridin-2-yl)amino)tetrahydro-2H-pyran-3,4-diol]",> 20
2,OC[C@H]1OC[C@H](Nc2ccc(C(F)(F)F)nn2)[C@@H](O)[C@H]1O [Compound A313],> 20
3,"CC(=O)N[C@@H]1CO[C@@H]2COC(C)(C)O[C@@H]2[C@@H]1O [Compound A127-2c, N-((4aR,7R,8R,8aR)-8-hydroxy-2,2-dimethylhexahydropyrano[3,2-d][1,3]dioxin-7-yl)acetamide]",> 200
4,"COC(=O)c1cc(OC)nc(N[C@H]2CO[C@H](CO)[C@H](O)[C@@H]2O)n1 [Compound A374, methyl 2-(((3S,4R,5R,6R)-4,5-dihydroxy-6-(hydroxymethyl)tetrahydro-2H-pyran-3-yl)amino)-6-methoxypyrimidine-4-carboxylate]",> 20
5,COc1cc(N[C@H]2CO[C@H](CO)[C@H](O)[C@@H]2O)nc(C#N)n1 [Compound A333],> 10
6,OC[C@H]1OC[C@H](Nc2cc(Cl)nc(C(F)(F)F)n2)[C@@H](O)[C@H]1O [Compound A328],> 20
7,"COc1cc(N2CCN(C)CC2)nc(N[C@H]2CO[C@H](CO)[C@H](O)[C@@H]2O)n1 [Compound A350, (2R,3R,4R,5S)-2-(hydroxymethyl)-5-((4-methoxy-6-(4-methylpiperazin-1-yl)pyrimidin-2-yl)amino)tetrahydro-2H-pyran-3,4-diol]",> 20
